# Data: patent US20220267380A1, “Glycopeptides Increasing Lipid Synthesis” (TFCHEM, priority 2019, published 2022)
# Test system: normal human dermal fibroblasts (NHDF)
# Test: Gene expression in NHDF, full transcriptome analysis with Affymetrix U219 microarray
# Assay type: cell-based
# Conditions: NHDF
# [1] = relative expression adjusted to detection limit (<20), 10 mg/ml, 24 h
compound,measurement,setting,value
CC(=O)N(CCCC[C@H](N)C(=O)O)CC(F)(F)[C@]1(O)O[C@H](CO)[C@H](O)[C@H](O)[C@H]1O [Compound 4],effect of treatment of NHDF on lipid synthesis (transcriptional),,"up regulation of lipids synthesis, including fatty acids, cholesterol or ceramides"
same,"Fold change, CYP51A1///LRRD1","10 mg/ml, 24 h, vs control",2.38
same,"Fold change, DHCR7","10 mg/ml, 24 h, vs control",3.24
same,"Fold change, HMGCS1","10 mg/ml, 24 h, vs control",2.39
same,"Fold change, HSD17B7","10 mg/ml, 24 h, vs control",2.43
same,"Fold change, MVD","10 mg/ml, 24 h, vs control",2.77
same,"Fold change, SC5D","10 mg/ml, 24 h, vs control",2.06
same,"Fold change, SREBF1","10 mg/ml, 24 h, vs control",3.15
same,"Fold change, POR","10 mg/ml, 24 h, vs control, Affymetrix probe set 11716114_x_at",3.68
same,"Fold change, G6PD","10 mg/ml, 24 h, vs control, Affymetrix probe set 11716292_a_at",2.53
same,"Fold change, G6PD","10 mg/ml, 24 h, vs control, Affymetrix probe set 11716293_x_at",2.48
same,"Fold change, INSIG1","10 mg/ml, 24 h, vs control, Affymetrix probe set 11716338_a_at",2.73
same,"Fold change, INSIG1","10 mg/ml, 24 h, vs control, Affymetrix probe set 11716339_a_at",3.73
same,"Fold change, NSMAF","10 mg/ml, 24 h, vs control, Affymetrix probe set 11717214_s_at",2.01
same,"Fold change, LSS","10 mg/ml, 24 h, vs control, Affymetrix probe set 11717620_a_at",2.14
same,"Fold change, ASAH1","10 mg/ml, 24 h, vs control, Affymetrix probe set 11717722_s_at",2.54
same,"Fold change, EBP","10 mg/ml, 24 h, vs control, Affymetrix probe set 11717859_a_at",2.48
same,"Fold change, COL4A3BP","10 mg/ml, 24 h, vs control, Affymetrix probe set 11721537_a_at",2.46
same,"Fold change, COL4A3BP","10 mg/ml, 24 h, vs control, Affymetrix probe set 11721538_a_at",2.19
same,"Fold change, HTRA2","10 mg/ml, 24 h, vs control, Affymetrix probe set 11726630_a_at",2.06
same,"Fold change, LSS","10 mg/ml, 24 h, vs control, Affymetrix probe set 11731324_a_at",3.13
same,"Fold change, CLN3","10 mg/ml, 24 h, vs control, Affymetrix probe set 11731408_x_at",3.73
same,"Fold change, NSMAF","10 mg/ml, 24 h, vs control, Affymetrix probe set 11740559_a_at",2.34
same,"Fold change, NSMAF","10 mg/ml, 24 h, vs control, Affymetrix probe set 11740560_x_at",2.19
same,"Fold change, ASAH1","10 mg/ml, 24 h, vs control, Affymetrix probe set 11740580_at",2.44
same,"Fold change, ASAH1","10 mg/ml, 24 h, vs control, Affymetrix probe set 11740581_s_at",2.41
same,"Fold change, ASAH1","10 mg/ml, 24 h, vs control, Affymetrix probe set 11740582_a_at",3.46
same,"Fold change, ASAH1","10 mg/ml, 24 h, vs control, Affymetrix probe set 11743547_a_at",3.97
same,"Fold change, TM7SF2","10 mg/ml, 24 h, vs control, Affymetrix probe set 11744179_x_at",2.10
same,"Fold change, CLN3","10 mg/ml, 24 h, vs control, Affymetrix probe set 11744874_x_at",3.98
same,"Fold change, POR","10 mg/ml, 24 h, vs control, Affymetrix probe set 11746973_x_at",3.22
same,"Fold change, CLN3","10 mg/ml, 24 h, vs control, Affymetrix probe set 11747203_x_at",2.97
same,"Fold change, PPP2R1A","10 mg/ml, 24 h, vs control, Affymetrix probe set 11747739_a_at",2.33
same,"Fold change, PPP2R1A","10 mg/ml, 24 h, vs control, Affymetrix probe set 11747740_x_at",2.66
same,"Fold change, TM7SF2","10 mg/ml, 24 h, vs control, Affymetrix probe set 11748279_s_at",2.46
same,"Fold change, POR","10 mg/ml, 24 h, vs control, Affymetrix probe set 11748368_x_at",3.37
same,"Fold change, CLN3","10 mg/ml, 24 h, vs control, Affymetrix probe set 11748869_a_at",3.24
same,"Fold change, CLN3","10 mg/ml, 24 h, vs control, Affymetrix probe set 11748870_x_at",3.33
same,"Fold change, EBP","10 mg/ml, 24 h, vs control, Affymetrix probe set 11749332_x_at",2.22
same,"Fold change, COL4A3BP","10 mg/ml, 24 h, vs control, Affymetrix probe set 11749683_a_at",2.62
same,"Fold change, DHCR24","10 mg/ml, 24 h, vs control, Affymetrix probe set 11751337_a_at",2.11
same,"Fold change, DHCR24","10 mg/ml, 24 h, vs control, Affymetrix probe set 11751338_x_at",2.31
same,"Fold change, PLA2G15","10 mg/ml, 24 h, vs control, Affymetrix probe set 11751383_a_at",2.52
same,"Fold change, G6PD","10 mg/ml, 24 h, vs control, Affymetrix probe set 11752486_a_at",3.12
same,"Fold change, CLN3","10 mg/ml, 24 h, vs control, Affymetrix probe set 11753053_x_at",3.08
same,"Fold change, PLA2G15","10 mg/ml, 24 h, vs control, Affymetrix probe set 11755396_a_at",3.26
same,"Fold change, CLN3","10 mg/ml, 24 h, vs control, Affymetrix probe set 11756016_x_at",2.80
same,"Fold change, HTRA2","10 mg/ml, 24 h, vs control, Affymetrix probe set 11756421_x_at",2.15
same,"Fold change, POR","10 mg/ml, 24 h, vs control, Affymetrix probe set 11757517_x_at",2.16
same,"Fold change, COL4A3BP","10 mg/ml, 24 h, vs control, Affymetrix probe set 11758133_s_at",2.04
same,"REadj2, CYP51A1///LRRD1",[1],2314.08
same,"REadj2, DHCR7",[1],1204.72
same,"REadj2, HMGCS1",[1],1284.34
same,"REadj2, HSD17B7",[1],166.42
same,"REadj2, MVD",[1],530.60
same,"REadj2, SC5D",[1],537.03
same,"REadj2, SREBF1",[1],456.21
same,"REadj2, G6PD","relative expression adjusted to detection limit (<20), 10 mg/ml, 24 h, Affymetrix probe set 11716292_a_at",438.70
same,"REadj2, G6PD","relative expression adjusted to detection limit (<20), 10 mg/ml, 24 h, Affymetrix probe set 11716293_x_at",290.47
same,"REadj2, INSIG1","relative expression adjusted to detection limit (<20), 10 mg/ml, 24 h, Affymetrix probe set 11716338_a_at",1272.02
same,"REadj2, INSIG1","relative expression adjusted to detection limit (<20), 10 mg/ml, 24 h, Affymetrix probe set 11716339_a_at",1678.67
same,"REadj2, EBP","relative expression adjusted to detection limit (<20), 10 mg/ml, 24 h, Affymetrix probe set 11717859_a_at",1008.77
same,"REadj2, HTRA2","relative expression adjusted to detection limit (<20), 10 mg/ml, 24 h, Affymetrix probe set 11726630_a_at",252.64
same,"REadj2, TM7SF2","relative expression adjusted to detection limit (<20), 10 mg/ml, 24 h, Affymetrix probe set 11744179_x_at",62.22
same,"REadj2, TM7SF2","relative expression adjusted to detection limit (<20), 10 mg/ml, 24 h, Affymetrix probe set 11748279_s_at",100.08
same,"REadj2, EBP","relative expression adjusted to detection limit (<20), 10 mg/ml, 24 h, Affymetrix probe set 11749332_x_at",812.08
same,"REadj2, DHCR24","relative expression adjusted to detection limit (<20), 10 mg/ml, 24 h, Affymetrix probe set 11751337_a_at",176.26
same,"REadj2, DHCR24","relative expression adjusted to detection limit (<20), 10 mg/ml, 24 h, Affymetrix probe set 11751338_x_at",345.60
same,"REadj2, PLA2G15","relative expression adjusted to detection limit (<20), 10 mg/ml, 24 h, Affymetrix probe set 11751383_a_at",103.53
same,"REadj2, G6PD","relative expression adjusted to detection limit (<20), 10 mg/ml, 24 h, Affymetrix probe set 11752486_a_at",220.41
same,"REadj2, PLA2G15","relative expression adjusted to detection limit (<20), 10 mg/ml, 24 h, Affymetrix probe set 11755396_a_at",177.48
same,"REadj2, HTRA2","relative expression adjusted to detection limit (<20), 10 mg/ml, 24 h, Affymetrix probe set 11756421_x_at",227.59
